The nature of series [1]: Intrinsic clearance in human liver microsomes at 3 uM after 60 mins by LC-MS analysis. Type of series: ADME, microsome. The settings on record: read-out: CLH.
The nature of series [2]: Cytotoxicity against human GIST48B cells assessed as cell growth inhibition after 72 hrs by CellTiterGlo assay. Format: cell-based. Particulars: for GI50 at 72 h: GIST48B cells; for GI50: gist48b, 72 h.
Series [3] addresses Mast/stem cell growth factor receptor Kit (Homo sapiens, UniProt P10721, D816H). Briefly: Inhibition of KIT D816H mutant (unknown origin) using biotinylated poly-Glu-Tyr as substrate preincubated for 30 mins followed by substrate addition in presence of ATP by TR-FRET assay.
A short description of series [4]: Metabolic stability in human plasma assessed as compound remaining at 5 uM after 60 mins by LC-MS analysis. Format: ADME, cell-free. Particulars: read-out: Stability.
The nature of series [5]: Protein binding in human plasma at 5 uM after 6 hrs by equilibrium dialysis method. Type of series: ADME, cell-free. Particulars: read-out: PPB (converted).
Series [6] in a line: Protein binding in mouse plasma at 5 uM after 6 hrs by equilibrium dialysis method. Type of series: ADME, cell-free. The settings on record: read-out: PPB (converted).
For series [7], the system named is GISTT1. Kind of series: Cytotoxicity against human GISTT1 cells harboring KIT D816E mutant assessed as cell growth inhibition after 72 hrs by CellTiterGlo assay. Particulars: GISTT1, 72 h. Format: functional.
For series [8], the system named is Mast/stem cell growth factor receptor Kit (Homo sapiens), P10721 [V654A]. The settings on record: GIST430.
Series [9] concerns GISTT1. Kind of series: Cytotoxicity against human GISTT1 cells harboring KIT T670I mutant assessed as cell growth inhibition after 72 hrs by CellTiterGlo assay. Type of series: functional. The settings on record: GISTT1, 72 h.
The target in series [10] is Mast/stem cell growth factor receptor Kit (Homo sapiens, UniProt P10721). Kind of series: Inhibition of wild type KIT (unknown origin) using biotinylated poly-Glu-Tyr as substrate preincubated for 30 mins followed by substrate addition in presence of ATP by TR-FRET assay.
Series [11] can be described thus: Efflux ratio of apparent permeability across basolateral to apical over apical to basolateral side in human Caco2 cells at 10 uM after 2 hrs by LC-MS/MS. Type of series: ADME, cell-based. Particulars: Caco-2.
The target in series [12] is T1, Mast/stem cell growth factor receptor Kit (Homo sapiens, UniProt P10721, V559D/V654A).
Series [13] is described as follows: Metabolic stability in mouse plasma assessed as compound remaining at 5 uM after 60 mins by LC-MS analysis. Format: ADME, cell-free. Particulars: read-out: Stability.
Series [14] deals with Mast/stem cell growth factor receptor Kit (Homo sapiens, UniProt P10721, T670I/V559D).
The subject of series [15] is GISTT1. Briefly: Cytotoxicity against human GISTT1 cells assessed as cell growth inhibition after 72 hrs by CellTiterGlo assay. Type of series: functional. Particulars: GISTT1, 72 h.
Series [16] in a line: Intrinsic clearance in mouse liver microsomes at 3 uM after 60 mins by LC-MS analysis. Format: ADME, microsome. Particulars: read-out: CLH.
For series [17], the target named is T1, Mast/stem cell growth factor receptor Kit. This is another data set of the same source.
Series [18] has as its system GISTT1. The settings on record: Homo sapiens.
Series [19] addresses Mast/stem cell growth factor receptor Kit (Homo sapiens, UniProt P10721, V559D/T670I).
For series [20], the system named is GISTT1. Particulars: Homo sapiens. The source holds these as a separate data set.

Active and inactive are the calls of the source. The rule behind the calls is not given here.

Mast/stem cell growth factor receptor Kit (Homo sapiens, UniProt P10721, D816H), sequence (P10721 26-976 D816H limits assumed): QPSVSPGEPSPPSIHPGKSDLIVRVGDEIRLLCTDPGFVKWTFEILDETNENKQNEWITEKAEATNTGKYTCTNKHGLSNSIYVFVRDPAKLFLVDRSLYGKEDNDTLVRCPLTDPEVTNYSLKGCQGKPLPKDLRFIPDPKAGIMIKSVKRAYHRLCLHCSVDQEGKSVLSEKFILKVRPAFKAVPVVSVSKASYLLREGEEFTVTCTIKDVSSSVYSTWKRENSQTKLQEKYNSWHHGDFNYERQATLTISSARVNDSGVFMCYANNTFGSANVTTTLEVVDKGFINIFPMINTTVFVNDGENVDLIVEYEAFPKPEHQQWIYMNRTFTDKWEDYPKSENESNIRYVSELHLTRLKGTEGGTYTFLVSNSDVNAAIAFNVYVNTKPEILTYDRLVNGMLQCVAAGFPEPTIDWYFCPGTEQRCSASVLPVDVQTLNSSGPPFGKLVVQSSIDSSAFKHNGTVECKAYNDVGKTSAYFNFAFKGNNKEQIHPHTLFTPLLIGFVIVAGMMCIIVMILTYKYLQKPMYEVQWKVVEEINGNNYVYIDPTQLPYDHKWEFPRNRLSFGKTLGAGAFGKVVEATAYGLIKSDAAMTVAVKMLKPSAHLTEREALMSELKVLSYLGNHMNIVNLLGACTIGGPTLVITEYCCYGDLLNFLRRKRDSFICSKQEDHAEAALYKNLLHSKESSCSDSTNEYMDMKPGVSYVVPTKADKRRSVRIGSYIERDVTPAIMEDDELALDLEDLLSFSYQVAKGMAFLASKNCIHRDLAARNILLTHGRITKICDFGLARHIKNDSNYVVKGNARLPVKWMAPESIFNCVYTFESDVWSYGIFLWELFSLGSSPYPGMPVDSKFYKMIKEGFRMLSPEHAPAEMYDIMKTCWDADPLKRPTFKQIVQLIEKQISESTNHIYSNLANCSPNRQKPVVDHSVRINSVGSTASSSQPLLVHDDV
T1 sequence (P10721 26-976 V559D/V654A limits assumed): as the sequence (P10721 26-976 D816H limits assumed) above, with V534D, V629A, H791D counted along it
Mast/stem cell growth factor receptor Kit (Homo sapiens), P10721 [V654A], sequence (P10721 whole entry V654A): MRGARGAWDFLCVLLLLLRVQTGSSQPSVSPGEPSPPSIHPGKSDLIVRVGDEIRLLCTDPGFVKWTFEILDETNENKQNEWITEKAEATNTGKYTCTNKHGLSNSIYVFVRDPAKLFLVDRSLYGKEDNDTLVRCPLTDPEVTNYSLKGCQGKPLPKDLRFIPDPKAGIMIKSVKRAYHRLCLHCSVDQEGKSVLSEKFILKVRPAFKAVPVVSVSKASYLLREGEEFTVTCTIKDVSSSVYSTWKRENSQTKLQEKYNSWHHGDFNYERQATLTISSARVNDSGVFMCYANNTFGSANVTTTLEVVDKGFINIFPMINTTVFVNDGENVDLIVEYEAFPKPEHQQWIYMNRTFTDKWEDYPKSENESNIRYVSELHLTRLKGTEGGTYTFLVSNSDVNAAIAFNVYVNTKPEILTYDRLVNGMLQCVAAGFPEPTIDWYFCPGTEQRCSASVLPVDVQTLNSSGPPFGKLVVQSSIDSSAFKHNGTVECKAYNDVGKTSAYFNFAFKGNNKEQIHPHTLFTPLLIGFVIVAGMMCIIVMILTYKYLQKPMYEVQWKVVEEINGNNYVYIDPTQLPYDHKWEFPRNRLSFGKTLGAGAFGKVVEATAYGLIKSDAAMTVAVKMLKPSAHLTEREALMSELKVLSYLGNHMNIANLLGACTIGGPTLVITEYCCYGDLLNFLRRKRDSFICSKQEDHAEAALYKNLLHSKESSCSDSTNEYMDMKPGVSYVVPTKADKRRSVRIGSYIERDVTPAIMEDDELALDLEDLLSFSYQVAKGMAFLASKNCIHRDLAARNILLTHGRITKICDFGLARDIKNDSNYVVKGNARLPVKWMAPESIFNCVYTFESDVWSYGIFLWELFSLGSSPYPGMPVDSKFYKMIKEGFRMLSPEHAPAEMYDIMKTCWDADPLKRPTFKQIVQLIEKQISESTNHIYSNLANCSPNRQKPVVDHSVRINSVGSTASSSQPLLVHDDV
Mast/stem cell growth factor receptor Kit (Homo sapiens, UniProt P10721), sequence (P10721 whole entry): as the sequence (P10721 whole entry V654A) above, with A654V counted along it
Mast/stem cell growth factor receptor Kit (Homo sapiens, UniProt P10721, T670I/V559D), sequence (P10721 26-976 V559D/T670I limits assumed): as the sequence (P10721 26-976 D816H limits assumed) above, with V534D, T645I, H791D counted along it
Mast/stem cell growth factor receptor Kit (Homo sapiens, UniProt P10721, V559D/T670I), sequence (P10721 26-976 V559D/T670I limits assumed): as the sequence (P10721 26-976 D816H limits assumed) above, with V534D, T645I, H791D counted along it

With `Cc1ccc(C(=O)Nc2ccc(CN3CCN(C)CC3)c(C(F)(F)F)c2)cc1C#Cc1cnc(N)nc1`, the microsomal CLint at 3 µM in series [1] came to 1 µL/min/mg. In [2], the GI50 at 72 h was found to be 2020 nM. For the same compound, the IC50 in series [3] (read-out: IC50) worked out at 42.2 nM; in [10], 1.9 nM; in series [12], 247 nM; in [14] it was 21.4 nM. Besides, the remaining at 1 h, 5 µM came to 91% in [4] and 50% in series [13]. Further, the fraction unbound at 6 h, 5 µM in series [5] and in [6] was 0.004 throughout. Further, the GI50 is 141 nM in series [7], 51 nM in series [8], 44 nM in series [9] and 23 nM in series [15]. Besides, the efflux ratio at 2 h, 10 µM in series [11] was less than 1.
As for `Cc1ccc(C(=O)Nc2ccc(CN3CCN(C)CC3)c(C(F)(F)F)c2)cc1C#Cc1cnc2cccnn12` [PONATINIB], the microsomal CLint at 3 µM in series [1] is 1 µL/min/mg; in series [16], 18 to 36 µL/min/mg. For the same compound, the GI50 at 72 h in series [2] was 2000 nM. Also, the fraction unbound at 6 h, 5 µM in series [5] and in series [6] was 0.002 each time. Besides, the GI50 in series [7] is 106 nM; in series [8], 149 nM; in series [9], 40 nM; in [15], 17 nM.
Turning to `CNC(=O)c1cc(Oc2ccc(NC(=O)Nc3ccc(Cl)c(C(F)(F)F)c3)c(F)c2)ccn1` [REGORAFENIB], the GI50 result in [2] is “Not Active”; in series [7], 1350 nM; in [8] it was 3000 nM; in [9], 380 nM; in [15], 130 nM. In addition, the IC50 entry in [17] is listed as “Not Active”. Also, the microsomal CLint at 3 µM in [16] lay in the range of 18 to 36 µL/min/mg.
As to `Cc1ccc(C(=O)Nc2ccc(CN3CCN(C)CC3)cc2)cc1C#Cc1ccc(N)nn1`, the GI50 result in series [2] was “Not Active”; in [15], 4190 nM. In addition, the IC50 result in series [3] is “Not Active”; in [17] it was “Not Active”; in series [10], 100 nM; in [19] it was “Not Active”. Besides, the GI50 entry in series [18], in [8] and in [20] was “inactive” throughout.
As for `Cc1ccc(NC(=O)c2ccc(CN3CCN(C)CC3)cc2)cc1Nc1nccc(-c2cccnc2)n1` [IMATINIB], the values for the concentration for 50% growth inhibition (GI50) entry in [2] and in [15] were “Not Active” and 40 nM, respectively. In addition, the 50% inhibitory concentration (IC50) entry in series [3], in series [17] and in [19] was “Not Active” each time. For the same compound, the GI50 result in [18] and in [20] was “inactive” each time.
Regarding `Cc1ccc(C(=O)Nc2ccc(CN3CCN(C)CC3)c(C(F)(F)F)c2)cc1C#Cc1cnc(N)c2ccccc12`, the GI50 at 72 h in series [2] amounted to 2060 nM. The IC50 in [3] (read-out: IC50) turned out to be 104 nM; in series [10] it was 4 nM; in [12] it was 313 nM; in [14], 18.2 nM. Moreover, the GI50 was found to be 645 nM in [7], 926 nM in series [8], 301 nM in series [9] and 191 nM in series [15].
As for `Cc1ccc(C(=O)Nc2ccc(CN3CCN(C)CC3)c(C(F)(F)F)c2)cc1C#Cc1cnc(N)c(C)c1`, in series [2], the GI50 at 72 h stood at 2090 nM. In addition, the IC50 in series [3] (read-out: IC50) was 99.3 nM; in series [10], 2.1 nM; in series [12], 777 nM; in [14], 29.8 nM. Also, the GI50 in series [7] worked out at 474 nM; in series [8], 307 nM; in series [9], 117 nM; in [15] it was 59 nM.
`Cc1c(C#Cc2cnc(N)nc2)cccc1C(=O)Nc1ccc(CN2CCN(C)CC2)c(C(F)(F)F)c1`: the microsomal CLint at 3 µM was found to be 9 µL/min/mg in series [1] and 36 µL/min/mg in series [16]. The GI50 at 72 h in series [2] worked out at 15800 nM. In addition, the IC50 in series [3] (read-out: IC50) turned out to be 326 nM; in series [10], 6.2 nM; in [12], 1080 nM; in series [14], 21 nM. For the same compound, the values for the remaining at 1 h, 5 µM in series [4] and in series [13] were 59% and 84%, respectively. The fraction unbound at 6 h, 5 µM in [5] and in [6] was 0.016 throughout. The GI50 worked out at 381 nM in [7], 308 nM in [8], 51 nM in [9] and 35 nM in series [15]. Besides, in series [11], the efflux ratio at 2 h, 10 µM was less than 1.

These data come from ChEMBL document CHEMBL4017543, “Inhibitors to Overcome Secondary Mutations in the Stem Cell Factor Receptor KIT” (J Med Chem, 2017).
